The target in data set [1] is T1, human GPR17 (Homo sapiens, UniProt Q13304).
T1 construct: HA; expressed in transfected cells
Briefly: [35S]GTPγS binding assay. Format: biochemical. Here is the method:
[^35S]GTPγS binding assays were carried out as previously described. Briefly, control and astrocytoma 1321N1 cells stably transfected with human pcDNA3.1 (control cells) and human HA-tag GPR17 were homogenized in 5 mM Tris/HCl and 2 mM EDTA (pH 7.4) and centrifuged at 48,000g for 15 min at 4°C. The resulting pellets were washed in 50 mM Tris/HCl and 10 mM MgCl2 (pH 7.4). After protein dosage, aliquots of cell membranes were incubated with increasing concentrations of each investigated ligand (1 pM–10 μM) and GTPγS binding to activated G-proteins was quantified as previously described. Compounds were purchased from two external providers, i.e., Ambinter (Ambinter c/o Greenpharma, Orléans, France http://www.ambinter.com/) and Asinex (http://www.asinex.com/).
For analysis and graphic presentation of [^35S]GTPγS binding data, a nonlinear multipurpose curve fitting computer program (Graph-Pad Prism) was used. All data are presented as the mean ± SEM of three different experiments.
The selected 15 molecules were evaluated in our in-house [^35S]GTPγS functional assay in membranes from cells transfected with human GPR17. […] Moreover, this assay has been already successfully used in the past to measure the ability of both endogenous and novel synthetic compounds to activate GPR17 [25, 31]. All tested molecules were able to potently activate GPR17 with nanomolar/sub-nanomolar affinities. Concentration-response curves obtained for each selected compound are reported in S4 Fig.
(GTPγS is a poorly hydrolysed GTP analogue; its binding reports G protein activation.)

A short description of data set [2]: In vivo mouse DMPK study, single 1 mg/kg subcutaneous dose. The procedure: In vivo DMPK studies were performed as an external service by Aptuit (Verona, Italy) according to standard procedures.
Two compounds were tested in a single dose pharmacokinetic (PK) study in mouse, in which a 1 mg/kg single dose solution (15% Ethanol, 85% PEG400) was administered by subcutaneous injection to naïve CD1 male mice from accredited supplier (n = 3), weighed prior to dosing. Blood samples were collected for 8 time-points (0.25, 0.50, 1, 2, 4, 6, 8, 24 hours).
Plasma samples were prepared and diluted according standard in-house procedures and stored at approximately -20°C, pending analysis. Briefly, blood samples were collected into tubes containing anticoagulant (K3EDTA), stored on ice and centrifuged to prepare plasma within 2 hours of collection. Plasma samples were diluted in Hepes Buffer and deproteinised using CH3CN containing rolipram as internal reference compound for positive ion mode, according standard procedure (20 ng/ml). After vortexing and centrifugation (3000 rpm per 10 min), sample supernatants were transferred in 96 well plate and diluted with water for analysis.
Blood concentrations of the tested compounds and their metabolites were detected through Liquid Chromatography-tandem Mass Spectrometry (QTRAP® 4000 LC-MS/MS System, Sciex). The results for each test compound in plasma were subjected to non-compartmental PK analysis using WinNonlin Phoenix v.6.3 for generation of appropriate PK parameters, reported along with graphical representation of the mean plasma concentration profiles over time.
At 24 hours, animals were sacrificed, and brains were collected and processed for measuring compound concentrations through mass spectrometry.

The test system of data set [3] is OPC-DRG co-cultures. Briefly: In vitro myelination assay. The class given is cell-based, rat OPCs, mouse DRG. To be noted: 10 nM; CTRL 100%; mean ± S.E.M. The procedure:
OPC-DRG co-cultures were prepared according to a previously described protocol.
DRG explants from E14.5 mice were directly put in culture after being plucked off from embryo spinal cords. Then, they were grown in Neurobasal medium (Life Technologies) in presence of 100 ng/ml nerve growth factor (NGF, Sigma-Aldrich), and in presence of 10 μM fluorodeoxyuridine (FUDR, Sigma-Aldrich) in order to remove all non-neuronal cells.
Purified primary rat OPCs were obtained from mixed glial cultures by orbital shaking for 3 hours. […]
At day 15, OPC/DRG co-cultures treated with either the selected compounds or the vehicle were fixed and treated with rat anti-MBP (Millipore), mouse anti-SMI 31 and mouse anti-SMI 32 (Cell Signaling), followed by the secondary goat anti-rat/-mouse antibody, conjugated to Alexa Fluor 555 or Alexa Fluor 488 (Life Technologies). The quantification of myelin segments was performed following a previously described protocol with ZEISS LSM Image Browser by acquiring 6 random fields of 4–5 coverslips for each experimental condition. […] The amount of myelin per axon (myelination index) was calculated as the ratio between the white pixels area and the green pixels area. […]

Setting [4] is: mouse, sc, plasma, 1 mg/kg s.c. single dose, CD1 male mice.

Values joined by “and” are separate entries in the source; they are usually repeats but may differ in a detail not shown here. Equal entries are not always repeated. Where two headings read alike, the source gives them in different places.

As usually defined, the EC50 is the concentration giving half of the maximal effect. Read a high EC50 as lower potency in that assay. What is called AUC(0-t) is exposure summed from dosing to a finite time, without extrapolation to infinity. Lower therefore signals less exposure. As a reminder, the Cmax is the peak of the concentration-time curve. In general, Tmax refers to the time from dosing to the highest level. As a reminder, the half-life is how long it takes for the measured level to halve.

T1 sequence (Q13304 29-367): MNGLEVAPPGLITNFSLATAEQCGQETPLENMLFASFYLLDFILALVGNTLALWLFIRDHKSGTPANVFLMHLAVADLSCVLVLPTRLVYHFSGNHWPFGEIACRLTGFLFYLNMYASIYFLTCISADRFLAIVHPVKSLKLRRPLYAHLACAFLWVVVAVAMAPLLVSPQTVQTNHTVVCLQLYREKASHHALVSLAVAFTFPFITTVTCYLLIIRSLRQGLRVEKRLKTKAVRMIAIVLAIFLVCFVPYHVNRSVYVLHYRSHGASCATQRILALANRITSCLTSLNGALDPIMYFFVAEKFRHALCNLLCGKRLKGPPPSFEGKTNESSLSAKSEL

In turn, `Cc1cccc(NC(=O)CN2C(=O)CC(c3ccccc3)=Nc3ccccc32)c1C` [Compound 18] registered an EC50 in data set [1] (membranes of 1321N1 cells transfected with human GPR17, mean ± SEM of 3 experiments) of 1.68 ± 0.1 nM. Further, the “% Emax (ratio vs Emax of the standard)” value in data set [1] (standard LTC4 50 nM set to 100% (¶ compounds)) is on record as 104.6%. In addition, in data set [1] (vs basal, mean ± SEM), the “Emax (% vs basal)” value is on record as 147.5 ± 5.8%. The “Plasma concentration, individual mice” value in data set [2] (0.50 h, 1 mg/kg s.c., 1 mg/kg) is 29.4 ng/mL and 23.0 ng/mL; in data set [2] (1.00 h, 1 mg/kg s.c., 1 mg/kg), 25.5 ng/mL and 30.8 ng/mL; in data set [2] (2.00 h, 1 mg/kg s.c., 1 mg/kg), 6.2 ng/mL and 13.0 ng/mL and 13.3 ng/mL; in data set [2] (4.00 h, 1 mg/kg s.c., 1 mg/kg) it was 0.7 ng/mL and 2.5 ng/mL and 1.5 ng/mL. The concentration at 0.5 h worked out at 23.3 ng/mL in data set [2] (male, CD1, mouse, plasma, sc, 1 mg/kg, 0.50 h, 1 mg/kg s.c., n=3 mice, read-out: Plasma concentration, Mean) and 17.4 ng/mL in data set [2] (male, CD1, mouse, plasma, sc, 1 mg/kg, 0.50 h, 1 mg/kg s.c., read-out: Plasma concentration, individual mice). For the same compound, the concentration at 1 h in data set [2] (male, CD1, mouse, plasma, sc, 1 mg/kg, 1.00 h, 1 mg/kg s.c., n=3 mice, read-out: Plasma concentration, Mean) stood at 25.7 ng/mL; in data set [2] (male, CD1, mouse, plasma, sc, 1 mg/kg, 1.00 h, 1 mg/kg s.c., read-out: Plasma concentration, individual mice) it was 20.7 ng/mL. The concentration at 2 h in data set [2] (male, CD1, mouse, plasma, sc, 1 mg/kg, 2.00 h, 1 mg/kg s.c., n=3 mice) stood at 10.8 ng/mL. Besides, the concentration at 4 h in data set [2] (male, CD1, mouse, plasma, sc, 1 mg/kg, 4.00 h, 1 mg/kg s.c., read-out: Plasma concentration, Mean) was found to be 1.6 ng/mL; in data set [2] (male, CD1, mouse, plasma, sc, 1 mg/kg, plasma, 1 mg/kg s.c. single dose, CD1 male mice, read-out: Clast) it was 1 ng/mL. For the same compound, in data set [2] (male, CD1, mouse, plasma, sc, 1 mg/kg, 6.00 h, 1 mg/kg s.c., read-out: Plasma concentration, individual mice), the concentration at 6 h was found to be 0.8 ng/mL. This compound showed an AUC(0-t) in data set [2] (setting [4]) of 46.7 ng·h/mL. In data set [2] (setting [4]), the Cmax turned out to be 26.4 ng/mL. The Tmax in data set [2] (setting [4]) is 60 min. For the same compound, in data set [2] (setting [4]), the half-life is 45.5 min. For the same compound, in data set [2] (plasma after s.c. administration in mice), the “Metabolites found in vivo” value was found to be 5. For the same compound, in data set [2] (plasma, 1 mg/kg s.c. single dose, CD1 male mice), the Tlast is recorded as 4.00 h. Moreover, the “Myelination Index” value in data set [3] worked out at 144.7 ± 14.28%.

These data come from article PMC7176092, “Development of the first in vivo GPR17 ligand through an iterative drug discovery pipeline: A novel disease-modifying strategy for multiple sclerosis” (PLoS ONE, 2020).
